# According to publication PMC8747035, “Design, Synthesis, and Biological Evaluation of 5,6,7,8-Tetrahydrobenzo[4,5]thieno[2,3-d]pyrimidines as Microtubule Targeting Agents” (Molecules, 2022):
# Columns and labels:
# Format in all cases: cell-based
# SK-OV-3 cells = experiment: SRB assay in SK-OV-3 cells; settings: Homo sapiens, read-out: IC50 ± SD in SK-OV-3 Cells
# Method: (§1) Comparison of the IC50 values in the parental SK-OV-3 and genetically manipulated SK-OV-3 MDR1-M6/6 cell line allows for the calculation of a relative resistance value, designated Rr. This value is calculated by dividing the IC50 value obtained in the Pgp-expressing SK-OV-3 MDR1-M6/6 cells by the IC50 obtained in the parental SK-OV-3 cells.
# (§2) The antiproliferative and cytotoxic effects of the compounds in cancer cells were evaluated using the SRB assay as previously described. MDA-MB-435 cells were obtained from the Lombardi Cancer Center of Georgetown University (Washington, DC, USA). SK-OV-3 and HeLa cells were purchased from ATCC. Details about the generation of the SK-OV-3 MDR1-M6/6 and HeLa WTβIII cells were described previously. The IC50 values represent an average of three independent experiments, each conducted using triplicate points.
# (§3) HeLa, A-10, SK-OV-3, and SK-OV-3 MDR1-M6/6 cells were grown in Basal Medium Eagle (Sigma-Aldrich, St. Louis, MO, USA) supplemented with 10% FBS (Hyclone, GE Life Sciences, Logan, UT, USA) 1% GlutaMAX (Gibco, Life Technologies, Waltham, MA, USA) and 50 µg/mL gentamycin (Life Technologies, USA). HeLa WTβIII cells were grown in Dulbecco’s Modified Eagle Medium (Life Technologies) supplemented with 10% FBS and 50 µg/mL gentamycin. MDA-MB-435 cells were maintained in Improved Minimum Essential Medium (Life Technologies) supplemented with 10% FBS and 25 µg/mL gentamycin. All cells were grown at 37 °C in a humidified environment with 5% CO2.
# M14 = experiment: NCI-60 growth inhibition, M14; settings: Homo sapiens, Melanoma
# Description: (§4) Compound 4 had better potency than the lead compound 1 in 50 cancer cell lines. (better by 5 to 6-fold in leukemia, 2 to 17-fold in NSCLC, 2 to 6-fold in colon cancer, 2 to 5-fold in CNS cancer, 2 to 25-fold in melanoma, 2 to 5-fold in ovarian cancer, 2 to 9-fold in renal cancer, 2 to 5-fold in prostate cancer, and 2 to 6-fold in breast cancer compared to lead compound 1).
# CAKI-1 = experiment: NCI-60 growth inhibition, CAKI-1; settings: Homo sapiens, Renal Cancer
# Description: as §4
# A-10 cells = experiment: Cellular microtubule depolymerization in A-10 cells (immunofluorescence); settings: Rattus norvegicus, A10; 18 h, loss of 50% of interphase microtubules
# Method: We investigated the microtubule depolymerization and the antiproliferative activities of compounds 4–14 (Table 2). […] We next evaluated the importance of the 4′-OMe group of compound 4 by replacing it with an isosteric 4′-SMe (5). […] Clearly, this further substantiated the importance of an S in the scaffold over an NH.
# The effects of the compounds on cellular microtubules were evaluated in A-10 cells using indirect immunofluorescence microscopy. These cells were obtained from the American Type Culture Collection (ATCC) (Manassas, VA, USA). Cells were treated with the compounds of interest for 18 h, and the cells fixed with cold MeOH and microtubule structures were visualized using a β-tubulin antibody (Sigma-Aldrich, St. Louis, MO, USA). The concentration that caused loss of 50% of the interphase microtubules was defined as the EC50 and calculated as previously described. These values represent an average of at least three independent experiments.
# HL-60(TB) = experiment: NCI-60 growth inhibition, HL-60(TB); settings: Homo sapiens, Leukemia
# Description: as §4
# UACC-62 = experiment: NCI-60 growth inhibition, UACC-62; settings: Homo sapiens, Melanoma
# Description: as §4
# DU-145 = experiment: NCI-60 growth inhibition, DU-145; settings: Homo sapiens, Prostate Cancer
# Description: as §4
# SK-MEL-5 = experiment: NCI-60 growth inhibition, SK-MEL-5; settings: Homo sapiens, Melanoma
# Description: as §4
# RPMI-8226 = experiment: NCI-60 growth inhibition, RPMI-8226; settings: Homo sapiens, Leukemia
# Description: as §4
# 786-0 = experiment: NCI-60 growth inhibition, 786-0; settings: Homo sapiens, Renal Cancer
# Description: as §4
# NCI-H23 = experiment: NCI-60 growth inhibition, NCI-H23; settings: Homo sapiens, NSCLC
# Description: as §4
# TK-10 = experiment: NCI-60 growth inhibition, TK-10; settings: Homo sapiens, Renal Cancer
# Description: as §4
# SF-295 = experiment: NCI-60 growth inhibition, SF-295; settings: Homo sapiens, CNS Cancer
# Description: as §4
# SF-539 = experiment: NCI-60 growth inhibition, SF-539; settings: Homo sapiens, CNS Cancer
# Description: as §4
# K-562 = experiment: NCI-60 growth inhibition, K-562; settings: Homo sapiens, K562, Leukemia
# Description: as §4
# OVCAR-5 = experiment: NCI-60 growth inhibition, OVCAR-5; settings: Homo sapiens, Ovarian Cancer
# Description: as §4
# A498 = experiment: NCI-60 growth inhibition, A498; settings: Homo sapiens, Renal Cancer
# Description: as §4
# NCI-H226 = experiment: NCI-60 growth inhibition, NCI-H226; settings: Homo sapiens, NSCLC
# Description: as §4
# SK-OV-3 MDR1-M6/6 cells = experiment: SRB assay in Pgp-expressing SK-OV-3 MDR1-M6/6 cells; settings: Homo sapiens, SKOV3-MDR1-M6/6, read-out: IC50 ± SD in SK-OV-3 MDR1-M6/6 Cells
# Method: as §1, §2, §3
# NCI/ADR-RES = experiment: NCI-60 growth inhibition, NCI/ADR-RES; settings: Homo sapiens, Ovarian Cancer
# Description: as §4
# SNB-75 = experiment: NCI-60 growth inhibition, SNB-75; settings: Homo sapiens, CNS Cancer
# Description: as §4
# SK-OV-3 = experiment: NCI-60 growth inhibition, SK-OV-3; settings: Homo sapiens, Ovarian Cancer
# Description: as §4
# SNB-19 = experiment: NCI-60 growth inhibition, SNB-19; settings: Homo sapiens, CNS Cancer
# Description: as §4
# UACC-257 = experiment: NCI-60 growth inhibition, UACC-257; settings: Homo sapiens, Melanoma
# Description: as §4
# MCF7 = experiment: NCI-60 growth inhibition, MCF7; settings: Homo sapiens, Breast Cancer
# Description: as §4
# HCT-116 = experiment: NCI-60 growth inhibition, HCT-116; settings: Homo sapiens, Colon Cancer
# Description: as §4
# SN12C = experiment: NCI-60 growth inhibition, SN12C; settings: Homo sapiens, Renal Cancer
# Description: as §4
# LOX IMVI = experiment: NCI-60 growth inhibition, LOX IMVI; settings: Homo sapiens, Melanoma
# Description: as §4
# PC-3 = experiment: NCI-60 growth inhibition, PC-3; settings: Homo sapiens, Prostate Cancer
# Description: as §4
# CCRF-CEM = experiment: NCI-60 growth inhibition, CCRF-CEM; settings: Homo sapiens, Leukemia
# Description: as §4
# SW-620 = experiment: NCI-60 growth inhibition, SW-620; settings: Homo sapiens, Colon Cancer
# Description: as §4
# HOP-62 = experiment: NCI-60 growth inhibition, HOP-62; settings: Homo sapiens, NSCLC
# Description: as §4
structure (smiles),measurement,setting,value
"COc1ccc(N(C)c2nc(N)nc3sc4c(c23)CCCC4)cc1 [Compound 4, N4-(4-methoxyphenyl)-N4-methyl-5,6,7,8-tetrahydrobenzo[4,5]thieno[2,3-d]pyrimidine-2,4-diamine]",IC50,SK-OV-3 cells,11.8 ± 1.1 nM
same,GI50,M14,4.32 nM
same,GI50,CAKI-1,16.8 nM
same,EC50,A-10 cells,19 nM
same,GI50,HL-60(TB),4.38 nM
same,GI50,UACC-62,14.9 nM
same,GI50,DU-145,15.6 nM
same,GI50,SK-MEL-5,10.8 nM
same,GI50,RPMI-8226,12.7 nM
same,GI50,786-0,12.4 nM
same,GI50,NCI-H23,11.3 nM
same,GI50,TK-10,14.2 nM
same,GI50,SF-295,10.2 nM
same,GI50,SF-539,7.93 nM
same,GI50,K-562,2.72 nM
same,GI50,OVCAR-5,10.8 nM
same,GI50,A498,12 nM
same,GI50,NCI-H226,17.5 nM
same,IC50,SK-OV-3 MDR1-M6/6 cells,17.5 ± 0.8 nM
same,GI50,NCI/ADR-RES,6.19 nM
same,GI50,SNB-75,8.42 nM
same,GI50,SK-OV-3,15.6 nM
same,GI50,SNB-19,9.04 nM
same,GI50,UACC-257,18.4 nM
same,GI50,MCF7,8.01 nM
same,GI50,HCT-116,5.46 nM
same,GI50,SN12C,14.4 nM
same,GI50,LOX IMVI,10.1 nM
same,GI50,PC-3,7.67 nM
same,GI50,CCRF-CEM,7.12 nM
same,GI50,SW-620,5.63 nM
same,GI50,HOP-62,17.7 nM
